Source: patent US11780826B2 (Amgen Inc., priority 2017, dated 2023)

Test system: Bovine cardiac myofibrils
Experiment: In vitro model of dose-dependent myofibril ATPase modulation (AC1.4, pyruvate kinase/lactate dehydrogenase-coupled ATPase assay at pCa25)
Assay type: biochemical
Settings: concentration at which ATPase activity was 1.4-fold higher than the bottom of the dose curve, mean of a minimum of two independent tests
Procedure, shortened: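 Compound dilutions were premixed with myofibrils, coupling enzymes, EGTA and CaCl2, then the reaction was started with an equal volume carrying ATP (final 1 mM), NADH and PEP. ATP turnover was followed at 340 nm, and dose responses were fit to a four-parameter equation.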

AC1.4 [µM] | Compound
0.4473 | C[C@H](C(=O)N[C@H](C)c1ccc(C(F)(F)F)cc1F)N(C)C(=O)[C@H]1CCCN(S(=O)(=O)N2CC(C#N)C2)C1 [Example 209, (3S)-1-((3-cyano-1-azetidinyl)sulfonyl)-N-((2R)-1-(((1R)-1-(2-fluoro-4-(trifluoromethyl)phenyl)ethyl)amino)-1-oxo-2-propanyl)-N-methyl-3-piperidinecarboxamide]
0.4487 | O=C(NCc1ccc(C(F)(F)F)cc1)[C@H]1CCCN1C(=O)[C@H]1CCCN(S(=O)(=O)N2CC(OCc3ccc(Cl)cc3)C2)C1 [Example 210, 1-(((3S)-1-((3-((4-chlorobenzyl)oxy)-1-azetidinyl)sulfonyl)-3-piperidinyl)carbonyl)-N-(4-(trifluoromethyl)benzyl)-D-prolinamide]
0.4488 | O=C(N[C@@H](c1ccc(C(F)(F)F)cc1F)C1CC1)[C@H]1C[C@H]2C[C@H]2N1C(=O)c1cccc(S(=O)(=O)C2CC2)c1 [Example 211, (1R,3R,5R)-N-((R)-cyclopropyl(2-fluoro-4-(trifluoromethyl)phenyl)methyl)-2-(3-(cyclopropylsulfonyl)benzoyl)-2-azabicyclo[3.1.0]hexane-3-carboxamide]
0.4557 | CCS(=O)(=O)c1cccc(C(=O)N2CCC[C@@H]2C(=O)N[C@@H](c2ccc(C(F)(F)F)cc2F)C2CC2)c1 [Example 212, N-((R)-cyclopropyl(2-fluoro-4-(trifluoromethyl)phenyl)methyl)-1-(3-(ethylsulfonyl)benzoyl)-D-prolinamide]
0.4603 | CC(C)(C)c1cccc(C(=O)N2[C@@H](C(=O)N[C@@H](c3ccc(C(F)(F)F)cc3F)C3COC3)C[C@H]3C[C@H]32)c1 [Example 213, (1R,3R,5R)-N-((R)-(2-fluoro-4-(trifluoromethyl)phenyl)(3-oxetanyl)methyl)-2-(3-(2-methyl-2-propanyl)benzoyl)-2-azabicyclo[3.1.0]hexane-3-carboxamide]
0.4666 | CS(=O)(=O)c1ccc(C(=O)N2CCC[C@@H]2C(=O)N[C@@H](c2cc(F)c(Cl)cc2F)C2CC2)cn1 [Example 215, N-((R)-(4-chloro-2,5-difluorophenyl)(cyclopropyl)methyl)-1-((6-(methylsulfonyl)-3-pyridinyl)carbonyl)-D-prolinamide]

More lines, now with the values behind:

Compound | AC1.4 [µM]
CC[C@H](NC(=O)[C@H]1CCCN1C(=O)c1cccc(S(=O)(=O)N2CC(C#N)C2)c1)c1ccc(C(F)(F)F)cc1F [Example 204, 1-(3-((3-cyano-1-azetidinyl)sulfonyl)benzoyl)-N-((1S)-1-(2-fluoro-4-(trifluoromethyl)phenyl)propyl)-D-prolinamide] | 0.4305
C[C@@H](NC(=O)[C@H]1CCCN1C(=O)c1cccc(S(=O)(=O)N2CC(C#N)C2)c1)c1cc(F)cc(F)c1 [Example 205, 1-(3-((3-cyano-1-azetidinyl)sulfonyl)benzoyl)-N-((1R)-1-(3,5-difluorophenyl)ethyl)-D-prolinamide] | 0.4322
N#CC1CN(S(=O)(=O)N2CCC[C@H](C(=O)N3CCC[C@@H]3C(=O)NCc3cccc(Cl)c3Cl)C2)C1 [Example 206, 1-(((3S)-1-((3-cyano-1-azetidinyl)sulfonyl)-3-piperidinyl)carbonyl)-N-(2,3-dichlorobenzyl)-D-prolinamide] | 0.4338
CS(=O)(=O)c1cccc(C(=O)N2[C@@H](C(=O)N[C@@H](c3ccc(Cl)cc3F)C3COC3)C[C@H]3C[C@H]32)c1 [Example 207, (1R,3R,5R)-N-((R)-(4-chloro-2-fluorophenyl)(3-oxetanyl)methyl)-2-(3-(methylsulfonyl)benzoyl)-2-azabicyclo[3.1.0]hexane-3-carboxamide] | 0.4436
CC(O)(c1cccc(C(=O)N2CCCC[C@@H]2C(=O)N[C@@H](c2ccc(C(F)(F)F)cc2F)C2CC2)c1)C(F)(F)F (stereo partly drawn) [Example 208, (2R)-N-((R)-cyclopropyl(2-fluoro-4-(trifluoromethyl)phenyl)methyl)-1-(3-(-1,1,1-trifluoro-2-hydroxy-2-propanyl)benzoyl)-2-piperidinecarboxamide] | 0.4457
